“And” between values parts separate entries of the source, which are not always exact repeats. Equal values may be shown once.
How the values were obtained:
[1] = molar heat capacity at constant pressure; conditions: 101.33 kPa, Small sample (50 mg) DSC
[2] = Molar enthalpy of transition or fusion; conditions: Crystal 3; DSC
[3] = for vapor or sublimation pressure: Calculated from knudsen effusion weight loss; for Triple point temperature: DTA

O=C1NC(=O)C(=O)N1 [parabanic acid]
Conditions | molar heat capacity at constant pressure [J/K/mol] | vapor or sublimation pressure
[1], 263.15 K, Crystal 3 | 153.78 | –
[1], 265.15 K, Crystal 3 | 154.68 | –
[1], 270.15 K, Crystal 3 | 157.16 | –
[1], 273.15 K, Crystal 3 | 158.53 | –
[1], 275.15 K, Crystal 3 | 159.48 | –
[1], 280.15 K, Crystal 3 | 161.53 | –
[1], 285.15 K, Crystal 3 | 163.59 | –
[1], 290.15 K, Crystal 3 | 165.7 | –
[1], 295.15 K, Crystal 3 | 167.6 | –
[1], 300.15 K, Crystal 3 | 169.81 | –
[1], 305.15 K, Crystal 3 | 172.08 | –
[1], 310.15 K, Crystal 3 | 174.5 | –
[1], 315.15 K, Crystal 3 | 177.24 | –
[1], 320.15 K, Crystal 3 | 179.33 | –
[1], 325.15 K, Crystal 3 | 180.62 | –
[1], 330.15 K, Crystal 3 | 182.52 | –
[1], 335.15 K, Crystal 3 | 184.84 | –
[1], 340.15 K, Crystal 3 | 187.21 | –
[1], 345.15 K, Crystal 3 | 189.26 | –
[1], 350.15 K, Crystal 3 | 191.69 | –
[1], 355.15 K, Crystal 3 | 193.8 | –
[1], 360.15 K, Crystal 3 | 196.01 | –
[1], 365.15 K, Crystal 3 | 197.59 | –
[1], 370.15 K, Crystal 3 | 200.07 | –
[1], 375.15 K, Crystal 3 | 201.42 | –
[1], 380.15 K, Crystal 3 | 203.59 | –
[1], 400.15 K, Crystal 2 | 211.5 | –
[1], 405.15 K, Crystal 2 | 213.6 | –
[1], 410.15 K, Crystal 2 | 215.93 | –
[1], 415.15 K, Crystal 2 | 216.68 | –
[1], 420.15 K, Crystal 2 | 218.83 | –
[1], 425.15 K, Crystal 2 | 220.28 | –
[1], 430.15 K, Crystal 2 | 222.89 | –
[1], 435.15 K, Crystal 2 | 225.62 | –
[1], 440.15 K, Crystal 2 | 227.43 | –
[1], 445.15 K, Crystal 2 | 229.93 | –
[1], 450.15 K, Crystal 2 | 232.06 | –
[1], 455.15 K, Crystal 2 | 234.43 | –
[1], 460.15 K, Crystal 2 | 236.96 | –
[1], 465.15 K, Crystal 2 | 239.26 | –
[1], 470.15 K, Crystal 2 | 241.31 | –
[1], 473.15 K, Crystal 2 | 243.13 | –
[3], 381.17 K, Crystal 3 | – | 0.0001133 kPa and 0.0001078 kPa
[3], 383.17 K, Crystal 3 | – | 0.0001373 kPa and 0.0001334 kPa
[3], 385.18 K, Crystal 3 | – | 0.0001672 kPa and 0.0001691 kPa and 0.000159 kPa
[3], 387.17 K, Crystal 3 | – | 0.0001972 kPa [middle of 4 runs]
[3], 389.17 K, Crystal 3 | – | 0.0002355 kPa and 0.0002336 kPa and 0.0002271 kPa
[3], 391.18 K, Crystal 3 | – | 0.000285 kPa and 0.000287 kPa
[3], 393.18 K, Crystal 2 | – | 0.0003353 kPa and 0.0003334 kPa
[3], 395.17 K, Crystal 2 | – | 0.0004133 kPa and 0.0004042 kPa
[3], 397.16 K, Crystal 2 | – | 0.0004877 kPa
[3], 397.18 K, Crystal 2 | – | 0.000484 kPa
[3], 399.17 K, Crystal 2 | – | 0.0005715 kPa
[3], 401.18 K, Crystal 2 | – | 0.0006635 kPa
[3], 403.17 K, Crystal 2 | – | 0.0008169 kPa
[3], 405.2 K, Crystal 2 | – | 0.0009469 kPa and 0.0009581 kPa
[3], 406.17 K, Crystal 2 | – | 0.001047 kPa and 0.001039 kPa

Conditions | Molar enthalpy of transition or fusion [kJ/mol]
[2] | 2.1

[3]
Conditions | Triple point temperature [K]
Crystal 1 | 520
Crystal 2 | 509.8
Crystal 3 | 392.3
